Test results from patent US12220550B2, “Transdermal delivery device, methods of using and making the same” (BUDDHIST TZU CHI MEDICAL FOUNDATION, priority 2021, dated 2025).

Assay: In vitro drug release from drug-loaded MNs
Assay type: physicochemical
Conditions: from IPN hydrogel MNs, PBS pH 7.4, 37° C., 100 rpm, first 24 hours
Experimental: The drug-loaded MNs were soaked in 10 mL of PBS solution (pH 7.4) and put in a shaking incubator at 37° C. and 100 rpm to simulate the real drug release environment. About 2.5 mL of the release medium was withdrawn and replenished with an equivalent volume of PBS every half hour for the first 4 hours. Similarly, the released medium was collected at the 5th, 6th, 8th, 12th, and 24th hour followed by every 24 h for 7 days. Then, the cumulative drug released was determined by measuring the UV-Vis absorbance of DOX and LPS at 485 nm and 256 nm, respectively, and then calculated using the standard calibration curve of the free drugs, as shown in FIGS. 14A and B.
Drug release behavior of IPN hydrogel was examined. First, DOX and/or LPS were loaded into the hydrogel by simple mixing with IPN hydrogel pre-gel solution (0.5 mg DOX/MNs and 0.2 mg LPS/MNs) followed by casting MNs and sequential photo-ionic crosslinking to obtained drug loaded solid MNs arrays (DOX loaded MN, LPS loaded MN and LPS/DOX loaded MN). Then, drug loaded MNs were immersed in 10 mL PBS solution and kept in an orbital shaker incubator with a rotation of 100 rpm at 37° C.

Molecule | cumulative drug release [%]
COc1cccc2c1C(=O)c1c(O)c3c(c(O)c1C2=O)C[C@@](O)(C(=O)CO)C[C@@H]3O[C@H]1C[C@H](N)[C@H](O)[C@H](C)O1 [DOX, doxorubicin] | ~66.1±7.4
lipopolysaccharide [LPS] | ~59.4±5.5
